Columns and labels:
[1] = biological target: T1, D-lactate dehydrogenases LdhTi (Thermodesulfatator indicus, UniProt F8A9V0); assay: Enzymatic characteristic identification (substrate spectrum) of D-lactate dehydrogenase LdhTi, NADH/NAD at 340 nm; assay type: biochemical; settings: for whether LdhTi catalyzes the substrate (in words) / Km / kcat: 50 mM phosphate buffer pH 7.0, 0.2 mM NADH or NAD+, 37° C.; for Km / kcat: substrate of purified LdhTi, “—” = enzyme has no activity for the substrate
Procedure: A reaction system is consisting of: 50 mM phosphate buffer solution (pH 7.0), 0.2 mM NADH or NAD^+ as coenzyme, a suitable amount of D-lactate dehydrogenases LdhTi and substrates with different concentrations, reacted at 37° C. An enzyme activity determination method is to determine oxidization of NADH or reduction of NAD at ultraviolet wavelength of 340 nm, wherein one enzyme activity unit is defined as the enzyme amount needed for oxidizing or reducing 1 μmoL NADH or NAD in one minute.

[2] = substrate: O=C(O)C(=O)Cc1ccccc1; assay: purified protein, by the assay type; settings: other: substrate of purified LdhTi, 50 mM phosphate buffer pH 7.0, 0.2 mM NADH or NAD+, 37° C., “—” = enzyme has no activity for the substrate
[3] = substrate: C[C@@H](O)C(=O)O; assay: Enzymatic characteristic identification (substrate spectrum) of D-lactate dehydrogenase LdhTi, NADH/NAD at 340 nm; assay type: biochemical, Thermodesulfatator indicus; settings: other: substrate of purified LdhTi, 50 mM phosphate buffer pH 7.0, 0.2 mM NADH or NAD+, 37° C., “—” = enzyme has no activity for the substrate
[4] = substrate: CC(=O)C(=O)O; assay: as above; assay type: biochemical, Thermodesulfatator indicus; settings: other: substrate of purified LdhTi, 50 mM phosphate buffer pH 7.0, 0.2 mM NADH or NAD+, 37° C., “—” = enzyme has no activity for the substrate
[5] = biological target: T1, D-lactate dehydrogenases LdhTi; assay: Determination of the optimal reaction pH value of D-lactate dehydrogenases LdhTi; assay type: biochemical; settings: 37° C., 20 mM pyruvic acid, 0.2 mM NADH, pH range 3.0-11.0, FIG. 3
Procedure: An enzyme activity determination method is to determine change in NADH at ultraviolet wavelength of 340 nm, and one enzyme activity unit is defined as the enzyme amount needed for oxidizing 1 μmoL of NADH in one minute. At 37° C., by using 20 mM pyruvic acid as a substrate and 0.2 mM NADH as a coenzyme, the change of enzyme activity of the D-lactate dehydrogenase within a pH range of 3.0-11.0 was determined. A buffer system is consisting of: 50 mM citric acid-sodium citrate buffer solution with pH of 3.0-7.0; 50 mM phosphate buffer solution with pH of 7.0-9.0; and 50 mM sodium carbonate-sodium hydrogen carbonate buffer solution with pH of 9.0-11.0. Experiments were repeated thrice. […] Relative enzyme activities in FIG. 3 are relative enzyme activities, which are obtained by: determining enzyme activities at different pH values, and correspondingly converting the enzyme activity values at other pH values on the basis that the highest value at pH 6.0 is 100%.

[6] = biological target: T1, D-lactate dehydrogenases LdhTi; assay: Determination of the optimal reaction temperature of D-lactate dehydrogenases LdhTi; assay type: biochemical; settings: 20 mM pyruvic acid, 0.2 mM NADH, 20 mM phosphate buffer pH 7.0, 30° C. to 100° C., FIG. 4
Procedure: An enzyme activity determination method is to determine change in NADH at ultraviolet wavelength of 340 nm, and one enzyme activity unit is defined as the enzyme amount needed for oxidizing 1 μmoL of NADH in one minute. Conditions for determination of the optimal reaction temperature of D-lactate dehydrogenases were as follows: 20 mM pyruvic acid as a substrate, 0.2 mM NADH as a coenzyme and 20 mM phosphate buffer solution (pH 7.0) system are adopted; and enzyme activities from 30° C. to 100° C. were respectively determined, and experiments were repeated thrice. […] Relative enzyme activities in FIG. 4 are relative enzyme activities, which are obtained by: determining enzyme activities at different temperature conditions, and correspondingly converting the enzyme activity values at other temperature conditions on the basis that the highest value at 70° C. is 100%.

Molecule: C[C@@H](O)C(=O)O [D-lactic Acid, D-lactic acid]
- whether LdhTi catalyzes the substrate (in words) [1]: can catalyze

Molecule: O=C(O)C(O)CO (centres unmarked) [Glyceric Acid, glyceric acid]
- whether LdhTi catalyzes the substrate (in words) [1]: no activity

Molecule: O=CC(=O)O [Glyoxylic Acid, glyoxylic acid]
- whether LdhTi catalyzes the substrate (in words) [1]: can catalyze
- Km [1]: 1760 ± 80 µM
- kcat [1]: 2.297 ± 0.0517 s⁻¹

Molecule: C[C@H](O)C(=O)O [L-lactic Acid, L-lactic acid]
- whether LdhTi catalyzes the substrate (in words) [1]: no activity

Molecule: O=C(O)CC(=O)C(=O)O [Oxaloacetic Acid, oxaloacetic acid]
- whether LdhTi catalyzes the substrate (in words) [1]: can catalyze
- Km [1]: 1320 ± 50 µM
- kcat [1]: 4.473 ± 0.0983 s⁻¹

Molecule: O=C(O)C(=O)Cc1ccccc1 [Phenylpyruvic Acid, phenylpyruvic acid]
- whether LdhTi catalyzes the substrate (in words) [1]: can catalyze

Molecule: CC(=O)C(=O)O [Pyruvic Acid, pyruvic acid]
- whether LdhTi catalyzes the substrate (in words) [1]: can catalyze
- catalytic efficiency of LdhTi for the substrate (in words) ([1]; compared among the tested substrates): highest catalytic efficiency

B1: D-lactate dehydrogenases LdhTi (Thermodesulfatator indicus DSM 15286) (protein)
chain: MKVIFFSMHPYEEEFLGPILPSDWDVEMTPDFLDETTVEKAKGAQVVSLFVSDKADGPVLEALHSYGVGLLALRSAGYDHIDIETAKRLGIKVVNVPAYSPHAIADHTLAIMLALIRRLHRAHDKVRLGDFDLDGLMGFDLNGKVAGVIGLGKIGRLVATRLKAFGCKVLGYDPYIQPEIVENVDLDTLITQADIISIHCPLTRENFHMFNEETFKRMKPGAILVNTARGGLIDTKALLEALKSGKLGGAALDVYEYERGLFFKNHQKEGIKDPYLAQLLGLANVVLTGHQAFLTREAVKNIEETTVENILEWQKNPQAKLKNEI
- Km [2]: 4580 ± 240 µM
- kcat [2]: 0.295 s⁻¹
- kcat/Km [2]: 64.3 M⁻¹ s⁻¹
- Km [3]: 5410 ± 280 µM
- kcat [3]: 0.105 ± 0.005 s⁻¹
- kcat/Km [3]: 19.3 ± 0.5 M⁻¹ s⁻¹
- Km [4]: 50 ± 10 µM
- kcat [4]: 1.08 ± 0.0283 s⁻¹
- kcat/Km [4]: 20700 ± 667 M⁻¹ s⁻¹

B2: LdhTi: D-lactate dehydrogenase from Thermodesulfatator indicus DSM 15286, amino acid sequence SEQ ID No. 1, expressed in E. coli and purified (protein)
chain: B1 chain
modifications: Thermodesulfatator indicus DSM 15286
- optimal reaction pH value [5]: 6.0
- optimal reaction temperature [6]: 70 °C

— patent US11225675B2, “D-lactate dehydrogenase, engineered strain containing D-lactate dehydrogenase and construction method and use of engineered strain” (Shanghai Jiao Tong University, priority 2017, dated 2022)
